PubChem BioAssay (NCI)
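96-well plates; 48 h exposure; 5 concentrations. Endpoints by linear interpolation between flanking doses. Not reached: highest tested concentration assigned. The concentration for full growth arrest is given as TGI.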

Experiments:
Assay in all cases: NCI anticancer screen, dose series, 48 h
HCT-116 colon = tested on: HCT-116 colon
OVCAR-4 ovarian = tested on: OVCAR-4 ovarian
SN12C renal = tested on: SN12C renal
HCC-2998 colon = tested on: HCC-2998 colon
A549 NSCLC = tested on: A549 NSCLC
MOLT-4 leukemia = tested on: MOLT-4 leukemia
786-0 renal = tested on: 786-0 renal
SK-OV-3 ovarian = tested on: SK-OV-3 ovarian
RXF 393 renal = tested on: RXF 393 renal
DMS 273 small cell lung = tested on: DMS 273 small cell lung
ACHN renal = tested on: ACHN renal
NCI-H23 lung = tested on: NCI-H23 lung
LXFL 529 NSCLC = tested on: LXFL 529 NSCLC
OVCAR-3 ovarian = tested on: OVCAR-3 ovarian
EKVX NSCLC = tested on: EKVX NSCLC
SK-MEL-28 melanoma = tested on: SK-MEL-28 melanoma
SF-539 CNS = tested on: SF-539 CNS
NCI-H460 lung = tested on: NCI-H460 lung
HT29 colon = tested on: HT29 colon
HOP-62 NSCLC = tested on: HOP-62 NSCLC
IGROV1 ovarian = tested on: IGROV1 ovarian
HL-60(TB) leukemia = tested on: HL-60(TB) leukemia
M19-MEL melanoma = tested on: M19-MEL melanoma
LOX IMVI melanoma = tested on: LOX IMVI melanoma
A498 renal = tested on: A498 renal
KM20L2 colon = tested on: KM20L2 colon
SNB-78 CNS = tested on: SNB-78 CNS
COLO 205 colon = tested on: COLO 205 colon
CAKI-1 renal = tested on: CAKI-1 renal
UACC-62 melanoma = tested on: UACC-62 melanoma
U251 CNS = tested on: U251 CNS
K-562 leukemia = tested on: K-562 leukemia
SNB-75 CNS = tested on: SNB-75 CNS
SK-MEL-5 melanoma = tested on: SK-MEL-5 melanoma
DLD-1 colon = tested on: DLD-1 colon
SF-295 CNS = tested on: SF-295 CNS
HOP-18 NSCLC = tested on: HOP-18 NSCLC
HOP-92 NSCLC = tested on: HOP-92 NSCLC
OVCAR-8 ovarian = tested on: OVCAR-8 ovarian
XF 498 CNS = tested on: XF 498 CNS
RPMI-8226 leukemia = tested on: RPMI-8226 leukemia
HCT-15 colon = tested on: HCT-15 colon
TK-10 renal = tested on: TK-10 renal
SNB-19 CNS = tested on: SNB-19 CNS
DMS 114 small cell lung = tested on: DMS 114 small cell lung
CCRF-CEM leukemia = tested on: CCRF-CEM leukemia
M14 melanoma = tested on: M14 melanoma
UACC-257 melanoma = tested on: UACC-257 melanoma
SW-620 colon = tested on: SW-620 colon
SK-MEL-2 melanoma = tested on: SK-MEL-2 melanoma
NCI-H522 lung = tested on: NCI-H522 lung
KM12 colon = tested on: KM12 colon
UO-31 renal = tested on: UO-31 renal
MALME-3M melanoma = tested on: MALME-3M melanoma
NCI-H226 lung = tested on: NCI-H226 lung
SF-268 CNS = tested on: SF-268 CNS
OVCAR-5 ovarian = tested on: OVCAR-5 ovarian
SR leukemia = tested on: SR leukemia

Measured: TGI

COc1ccc2oc(C(=O)O)c3c2c1CCC3
not listed: SK-MEL-2 melanoma | NCI-H522 lung | KM12 colon | UO-31 renal | MALME-3M melanoma | NCI-H226 lung | SF-268 CNS | OVCAR-5 ovarian | SR leukemia
> 100 µM: all other assays above

N#CCC(=O)N/N=C(\C(=O)Nc1ccc(Cl)c(Cl)c1)C1CN(c2ccccc2)N=C1N (stereo not drawn)
not listed: CAKI-1 renal | XF 498 CNS | SNB-19 CNS | SW-620 colon
> 100 µM: all other assays above
